This is an account of results in US20170253607A1, “LONG-ACTING HIV PROTEASE INHIBITOR” (Shionogi & Co., Ltd., priority 2014, published 2017).

This test has as its target HIV-1 PR (Human immunodeficiency virus type 1 group M subtype B, UniProt P04585). Nature of the test: HIV-protease inhibitory activity assay (FRET peptide substrate). In kind it is biochemical. The following applies: Test Example 1. The method, boiled down: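 HIV-1 PR (0.83 ng) preincubated with compounds 20 min at room temperature in 0.1 mol/L NaAc, 0.5 mol/L NaCl, 1 mmol/L EDTA, 1 mmol/L DTT, 0.05% Tween 20, pH 4.8. Cleavage of HiLyte Fluor 488/QXL 520 FRET peptide (2 μmol/L) read after 60 minutes at 485/535 nm; IC50 from four-parameter logistic fit.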
In turn, `COc1ccc(S(=O)(=O)N(CC(C)C)CC(O)C(Cc2ccc(N3CCN(C(=O)c4sc5c(c4C(=O)O)CC(C)(C)CC5)CC3)cc2)NC(=O)OC2COC3(C)OCCC23)cc1` (centres unmarked) [Compound I-224] displayed an IC50 of 1.96 nM.

Compound `CC(C)CN(CC(O)C(Cc1ccc(CCc2sc3c(c2C(=O)O)CC(C)(C)CC3)cc1)NC(=O)OC1COC2OCCC12)S(=O)(=O)c1ccc2ncsc2c1` (centres unmarked) [Compound I-831] returned an IC50 of 1.49 nM.

As for `COc1ccc(S(=O)(=O)N(CC2CCC2)CC(O)C(Cc2ccc(N(C)Cc3ccccc3C(=O)Nc3sc4c(c3C(=O)O)CC(C)(C)CC4)cc2)NC(=O)OC2COC3(C)OCCC23)cc1` (centres unmarked) [Compound I-682], the IC50 was found to be 4.37 nM.

Consider `COc1ccc(S(=O)(=O)N(CC(C)C)CC(O)C(Cc2ccc(NCc3cc(C(F)(F)F)ccc3-n3nc(C(=O)O)c4c3CCC(C)(C)C4)cc2)NC(=O)OC2COC3(C)OCCC23)cc1` (centres unmarked) [Compound I-446], for which the IC50 was 2.12 nM.

For `COc1ccc(S(=O)(=O)N(CC(C)C)CC(O)C(Cc2ccc(OCC3CCCN3c3ccccc3-c3sc4c(c3C(=O)O)CC(C)(C)CC4)cc2)NC(=O)OC2COC3(C)OCCC23)cc1` (centres unmarked) [Compound I-95], the midpoint of inhibition, the IC50, lay at 2.09 nM.

In turn, `COc1ccc(S(=O)(=O)N(CC(C)C)CC(O)C(Cc2ccc(CN(C)Cc3ccccc3-c3sc4c(c3C(=O)O)CC(C)(C)CC4)cc2)NC(=O)OC2COC3(C)OCCC23)cc1` (centres unmarked) [Compound I-250] yielded an IC50 of 2.2 nM.

`COc1ccc(S(=O)(=O)N(CC(C)C)CC(O)C(Cc2ccc(NCc3cc(Oc4cccc5cccnc45)ccc3-c3sc4c(c3C(=O)O)CC(C)(C)CC4)cc2)NC(=O)OC2COC3(C)OCCC23)cc1` (centres unmarked) [Compound I-684]: the midpoint of inhibition, the IC50, lay at 2.83 nM.

For `COc1ccc(S(=O)(=O)N(CC(C)C)CC(O)C(Cc2ccc(OC(C)(C)C(=O)NS(=O)(=O)c3cccc(-c4ccc(F)cc4F)c3)cc2)NC(=O)OC2COC3(C)OCCC23)cc1` (centres unmarked) [Compound I-57], the midpoint of inhibition, the IC50, lay at 1.07 nM.

On to `CCCN(Cc1ccccc1-c1sc2c(c1C(=O)O)CC(C)(C)CC2)c1ccc(CC(NC(=O)OC2COC3(C)OCCC23)C(O)CN(CC(C)C)S(=O)(=O)c2ccc(OC)cc2)cc1` (centres unmarked) [Compound I-462], for which the IC50 came to 3.33 nM.

On to `CC1(C)CCc2sc(-c3ccc(C(F)(F)F)cc3CNc3ccc(CC(NC(=O)OC4COC5OCCC45)C(O)CN(CC4CCCC4)S(=O)(=O)c4ccc5ncsc5c4)cc3)c(C(=O)O)c2C1` (centres unmarked) [Compound I-873], for which 8.43 nM corresponded to half-maximal inhibition (IC50).

In turn, `COc1ccc(S(=O)(=O)N(CC(C)C)CC(O)C(Cc2ccc(N(Cc3ccccc3)Cc3ccccc3-c3sc4c(c3C(=O)O)CC(C)(C)CC4)cc2)NC(=O)OC2COC3(C)OCCC23)cc1` (centres unmarked) [Compound I-299] gave an IC50 of 16.5 nM.

Turning to `COc1ccc(S(=O)(=O)N(CC(C)C)CC(O)C(Cc2ccc(NCc3ccc(Oc4ccccc4)cc3-c3sc4c(c3C(=O)O)CC(C)(C)CC4)cc2)NC(=O)OC2COC3(C)OCCC23)cc1` (centres unmarked) [Compound I-695], inhibition was half-maximal at 4.07 nM (IC50).

For `COc1ccc(S(=O)(=O)N(CC(C)C)C[C@@H](O)[C@H](Cc2ccc(OCc3ccc(-c4ccc(F)cc4F)cc3-c3noc(=O)[nH]3)cc2)NC(=O)O[C@H]2CO[C@@]3(C)OCC[C@@H]23)cc1` [Compound I-21], the IC50 is 1.39 nM.

In turn, `COc1ccc(S(=O)(=O)N(CC(C)C)CC(O)C(Cc2ccc(OC3CCCN(c4ccc(C#N)cc4-c4sc5c(c4C(=O)O)CC(C)(C)CC5)C3)cc2)NC(=O)OC2COC3(C)OCCC23)cc1` (centres unmarked) [Compound I-331] registered an IC50 of 12.3 nM.

`COc1ccc(S(=O)(=O)N(CC(C)C)CC(O)C(Cc2ccc(OCc3ccccc3-c3oc4c(c3C(=O)O)CCCC4)cc2)NC(=O)OC2COC3(C)OCCC23)cc1` (centres unmarked) [Compound I-130]: the midpoint of inhibition, the IC50, lay at 1.12 nM. This IC50 is about 11-fold lower than that of the compound before.

In turn, `COc1ccc(S(=O)(=O)N(CC(C)C)CC(O)C(Cc2ccc(N3CC4CN(c5ccc(C#N)cc5-c5sc6c(c5C(=O)O)CC(C)(C)CC6)CC4C3)cc2)NC(=O)OC2COC3(C)OCCC23)cc1` (centres unmarked) [Compound I-233] yielded an IC50 of 6.22 nM.

The compound `COc1ccc(S(=O)(=O)N(CC(C)C)CC(O)C(Cc2ccc(OCC3CCCN3c3ccc(C#N)cc3-c3sc4c(c3C(=O)O)CC(C)(C)CC4)cc2)NC(=O)OC2COC3(C)OCCC23)cc1` (centres unmarked) [Compound I-333] had an IC50 of 11 nM.

For the compound `COc1ccc(S(=O)(=O)N(CC(C)C)CC(O)C(Cc2ccc(N(C)Cc3cccc(-c4sc5c(c4C(=O)O)CC(C)(C)CC5)n3)cc2)NC(=O)OC2COC3(C)OCCC23)cc1` (centres unmarked) [Compound I-494], it took 1.46 nM to reach half-maximal inhibition (IC50).

`COc1ccc(S(=O)(=O)N(CC(C)C)CC(O)C(Cc2ccc(N(C)Cc3ccc(Oc4ccc(-c5sc6c(c5C(=O)O)CC(C)(C)CC6)c(C)c4)cc3)cc2)NC(=O)OC2COC3(C)OCCC23)cc1` (centres unmarked) [Compound I-572] had an IC50 of 30 nM. Compared with the last compound, the IC50 is about 21-fold higher.

Compound `COc1ccc(S(=O)(=O)N(CC(C)C)CC(O)C(Cc2ccc(NCc3cc(-c4sc5c(c4C(=O)O)CC(C)(C)CC5)ccc3OC)cc2)NC(=O)OC2COC3(C)OCCC23)cc1` (centres unmarked) [Compound I-281] gave an IC50 of 2.95 nM.

Turning to `COc1ccc(S(=O)(=O)N(CC(C)C)CC(O)C(Cc2ccc(N(C)Cc3ccc(OC)c(-c4sc5c(c4C(=O)O)CC(C)(C)CC5)c3)cc2)NC(=O)OC2COC3(C)OCCC23)cc1` (centres unmarked) [Compound I-464], the IC50 was 2.52 nM.

Consider `COc1ccc(S(=O)(=O)N(CC(C)C)CC(O)C(Cc2ccc(NC(C)c3ccccc3-c3sc4c(c3C(=O)O)CC(C)(C)CC4)cc2)NC(=O)OC2COC3(C)OCCC23)cc1` (centres unmarked) [Compound I-383], for which the IC50 stood at 6.47 nM.

In turn, `COc1ccc(S(=O)(=O)N(CC2CCCC2)CC(O)C(Cc2ccc(OCc3nn(C)cc3-c3sc4c(c3C(=O)O)CC(C)(C)CC4)cc2)NC(=O)OC2COC3(C)OCCC23)cc1` (centres unmarked) [Compound I-199] yielded an IC50 of 2.35 nM.

Regarding `COc1ccc(S(=O)(=O)N(CC(C)C)CC(O)C(Cc2ccc(NCc3c(-c4sc5c(c4C(=O)O)CC(C)(C)CC5)cccc3[N+](=O)[O-])cc2)NC(=O)OC2COC3(C)OCCC23)cc1` (centres unmarked) [Compound I-546], the IC50 worked out at 1.86 nM.

Take `COc1ccc(S(=O)(=O)N(CC(C)C)CC(O)C(Cc2ccc(N(Cc3ccoc3)Cc3ccccc3-c3sc4c(c3C(=O)O)CC(C)(C)CC4)cc2)NC(=O)OC2COC3(C)OCCC23)cc1` (centres unmarked) [Compound I-424]: the IC50 amounted to 5.41 nM.

For the compound `COc1ccc(S(=O)(=O)N(CC(C)C)CC(O)C(Cc2ccc(N(C)Cc3cc(N4CCCCC4=O)ccc3-c3sc4c(c3C(=O)O)CC(C)(C)CC4)cc2)NC(=O)OC2COC3(C)OCCC23)cc1` (centres unmarked) [Compound I-731], the IC50 was 1.96 nM.

With `CC(C)CN(CC(O)C(Cc1ccc(OCc2ccccc2-c2sc3c(c2C(=O)O)CC(C)(C)CC3)cc1)NC(=O)OC1COC2(C)OCCC12)S(=O)(=O)c1ccc2nc(NC3CCN(C4CCCC4)CC3)sc2c1` (centres unmarked) [Compound I-792], the midpoint of inhibition, the IC50, lay at 25 nM.

In turn, `CC1(C)CCc2sc(-c3ccc(CCCN(CC(O)C(Cc4ccccc4)NC(=O)OC4COC5(C)OCCC45)S(=O)(=O)c4ccc5ncsc5c4)cc3)c(C(=O)O)c2C1` (centres unmarked) [Compound I-164] had an IC50 of 2.07 nM.

`COc1ccc(S(=O)(=O)N(CC(C)C)CC(O)C(Cc2ccc(NCc3cnc4ccc(-c5sc6c(c5C(=O)O)CC(C)(C)CC6)cn34)cc2)NC(=O)OC2COC3(C)OCCC23)cc1` (centres unmarked) [Compound I-286] had an IC50 of 2.06 nM. The IC50 values of the last two compounds are within 1.5-fold of each other.

In turn, `COc1ccc(S(=O)(=O)N(CC(C)C)CC(O)C(Cc2ccc(OCc3ncccc3-c3ccccc3-c3sc4c(c3C(=O)O)CC(C)(C)CC4)cc2)NC(=O)OC2COC3(C)OCCC23)cc1` (centres unmarked) [Compound I-110] showed an IC50 of 1.67 nM.

Regarding `COc1ccc(S(=O)(=O)N(CC(C)C)CC(O)C(Cc2ccc(NCC3(c4cccc(-c5sc6c(c5C(=O)O)CC(C)(C)CC6)c4)CCCC3)cc2)NC(=O)OC2COC3(C)OCCC23)cc1` (centres unmarked) [Compound I-393], the IC50 was 14.5 nM.

`COc1ccc(S(=O)(=O)N(CC(C)C)CC(O)C(Cc2ccc(N(CCCC(F)(F)F)Cc3ccccc3-c3sc4c(c3C(=O)O)CC(C)(C)CC4)cc2)NC(=O)OC2COC3(C)OCCC23)cc1` (centres unmarked) [Compound I-427] returned an IC50 of 10.4 nM.

On to `COc1ccc(S(=O)(=O)N(CC(C)C)CC(O)C(Cc2ccc(OCc3ccccc3-c3sc(Cl)c(CC(C)C)c3C(=O)O)cc2)NC(=O)OC2COC3OCCC23)cc1` (centres unmarked) [Compound I-850], for which the IC50 was 1.03 nM. Against the preceding compound, the IC50 is about 10-fold lower.

Compound `COc1ccc(S(=O)(=O)N(CC(C)C)CC(O)C(Cc2ccc(OCc3ccccc3-c3sc(C)c(-c4ccccc4)c3C(=O)O)cc2)NC(=O)OC2COC3OCCC23)cc1` (centres unmarked) [Compound I-824] yielded an IC50 of 1.01 nM. This IC50 and that of the compound before are within 1.5-fold of each other.

As to `COc1ccc(S(=O)(=O)N(CC(C)C)C[C@@H](O)[C@H](Cc2ccc(OCc3ccccc3-c3sc(-c4ccccc4)nc3C(=O)O)cc2)NC(=O)O[C@H]2CO[C@H]3OCC[C@H]32)cc1` [Compound I-3], inhibition was half-maximal at 1.02 nM (IC50). The IC50 values of the last two compounds are within 1.5-fold of each other.

On to `CC=Cc1ccc(-c2sc3c(c2C(=O)O)CC(C)(C)CC3)c(CNc2ccc(CC(NC(=O)OC3COC4(C)OCCC34)C(O)CN(CC(C)C)S(=O)(=O)c3ccc(OC)cc3)cc2)c1` (centres unmarked) [Compound I-723], for which the IC50 came out at 1.65 nM.

As for `CC(C)CN(CC(O)C(Cc1ccc(OCc2cnc(C(=O)O)c(-c3ccc(F)cc3F)c2)cc1)NC(=O)OC1COC2(C)OCCC12)S(=O)(=O)c1ccc2ncsc2c1` (centres unmarked) [Compound I-157], it took 1.22 nM to reach half-maximal inhibition (IC50).

The compound `COc1ccc(S(=O)(=O)N(CC(C)C)CC(O)C(Cc2ccc(OCc3ccccc3-c3sc4c(c3C(=O)O)CC(C)(C)CC4)cc2)NC(=O)OC2COC3(C)OCC(O)C23)cc1` (centres unmarked) [Compound I-56] showed an IC50 of 1.21 nM.

`CCCCCCCCCCCCCC(=O)Nc1ccc(CNc2ccc(CC(NC(=O)OC3COC4(C)OCCC34)C(O)CN(CC(C)C)S(=O)(=O)c3ccc(OC)cc3)cc2)c(-c2sc3c(c2C(=O)O)CC(C)(C)CC3)c1` (centres unmarked) [Compound I-763] came in with an IC50 of 3.07 nM. Against the preceding compound, the IC50 is about 2.5-fold higher.

With `COc1ccc(S(=O)(=O)N(CC(C)C)CC(O)C(Cc2ccc(OCc3ccccc3-c3ccc4c(c3)C(=O)C(c3ccccc3C)C4=O)cc2)NC(=O)OC2COC3(C)OCCC23)cc1` (centres unmarked) [Compound I-176], the IC50 was 1.01 nM. This IC50 lies about 3-fold lower than the previous one.

`COc1ccc(S(=O)(=O)N(CC(C)C)CC(O)C(Cc2ccc(N(C)CC3CCCCC3C(=O)Nc3sc4c(c3C(=O)O)CC(C)(C)CC4)cc2)NC(=O)OC2COC3(C)OCCC23)cc1` (centres unmarked) [Compound I-616] registered an IC50 of 4.2 nM.
